Here are results for 13 compounds from ChEMBL document CHEMBL5030541, “Non-alkylator anti-glioblastoma agents induced cell cycle G2/M arrest and apoptosis: Design, in silico physicochemical and SAR studies of 2-aminoquinoline-3-carboxamides” (Bioorg Med Chem Lett, 2021).

The structures appear in SMILES notation. Calls of active or inactive are those of the source. The rule behind the calls is not given here.

For test [1], the system named is U-87 MG. Description: Cytotoxicity against human U-87 MG cells assessed as inhibition of cell growth measured after 48 hrs by MTT assay. The class given is functional, cell-based, U-87MG ATCC.
In test [2] the test system is A549. Description: Cytotoxicity against human A549 cells assessed as inhibition of cell growth measured after 48 hrs by MTT assay. As to conditions: A549, 48 h. The class given is functional, cell-based.
Test [3] deals with MKN-45. Description: Cytotoxicity against human MKN-45 cells assessed as inhibition of cell growth measured after 48 hrs by MTT assay. The test is classed as functional, cell-based. Particulars: MKN-45, 48 h.
Test [4] relates to HCT-116. The test is described as follows: Cytotoxicity against human HCT-116 cells assessed as inhibition of cell growth measured after 48 hrs by MTT assay. The class given is functional, cell-based. As to conditions: HCT-116, 48 h.
The subject of test [5] is U-87 MG. Description: Cytotoxicity against human U-87 MG cells assessed as inhibition of cell growth at 200 uM measured after 48 hrs by MTT assay. The class given is functional, cell-based. As to conditions: U-87MG ATCC.
Test [6] deals with A549. The test is described as follows: Cytotoxicity against human A549 cells assessed as inhibition of cell growth at 200 uM measured after 48 hrs by MTT assay. The class given is functional, cell-based.
The test system of test [7] is MKN-45. The test is described as follows: Cytotoxicity against human MKN-45 cells assessed as inhibition of cell growth at 200 uM measured after 48 hrs by MTT assay. The class given is functional, cell-based.
Test [8] has as its system HCT-116. Description: Cytotoxicity against human HCT-116 cells assessed as inhibition of cell growth at 200 uM measured after 48 hrs by MTT assay. The class given is functional, cell-based.
For test [9], the system named is U-87 MG. The test is described as follows: Cytotoxicity against human U-87 MG cells assessed as inhibition of cell growth at 100 uM measured after 48 hrs by MTT assay. The class given is functional, cell-based. As to conditions: U-87MG ATCC.
Test [10] deals with U-251. Description: Cytotoxicity against human U-251 cells assessed as inhibition of cell growth measured after 48 hrs by MTT assay. The test is classed as functional, cell-based. As to conditions: U-251, 48 h.
For test [11], the system named is A 172. The test is described as follows: Cytotoxicity against human A 172 cells assessed as inhibition of cell growth measured after 48 hrs by MTT assay. The class given is functional, cell-based. As to conditions: A 172, 48 h.
For test [12], the system named is U-118-MG. Description: Cytotoxicity against human U-118-MG cells assessed as inhibition of cell growth measured after 48 hrs by MTT assay. The class given is functional, cell-based.
Test [13] deals with L02. The test is described as follows: Cytotoxicity against human L02 cells assessed as inhibition of cell growth measured after 48 hrs by MTT assay. The test is classed as cell-based. As to conditions: L02, 48 h.
In test [14] the test system is NCM460. Description: Cytotoxicity against human NCM460 cells assessed as inhibition of cell growth measured after 48 hrs by MTT assay. The class given is cell-based. As to conditions: NCM460, 48 h.
The test system of test [15] is CCD-841CoN. The test is described as follows: Cytotoxicity against human CCD-841CoN cells assessed as inhibition of cell growth measured after 48 hrs by MTT assay. The class given is cell-based.
Test [16] deals with U-87 MG. Description: Effect on cell morphology in human U-87 MG cells assessed as appearance of round cells. The class given is functional, cell-based. Particulars: U-87MG ATCC.
Test [17] relates to U-118-MG. Description: Effect on cell morphology in human U-118-MG cells assessed as appearance of round cells. The test is classed as functional, cell-based.
Test [18] deals with U-87 MG. The test is described as follows: Effect on cell morphology in human U-87 MG cells assessed as lose of adherence. The test is classed as functional, cell-based. As to conditions: U-87MG ATCC.
In test [19] the test system is U-118-MG. Description: Effect on cell morphology in human U-118-MG cells assessed as lose of adherence. The test is classed as functional, cell-based.
Test [20] relates to U-87 MG. Description: Induction of cell cycle arrest in human U-87 MG cells assessed as accumulation of cells at G2/M phase at 0.5 times IC50 measured after 48 hrs by PI staining based flow cytometry analysis (Rvb= 5.39%). The test is classed as functional, U-87MG ATCC.
Test [21] deals with U-87 MG. The test is described as follows: Induction of apoptosis in human U-87 MG cells assessed as live cells at 44 uM measured after 48 hrs by annexin V-FITC/PI staining based flow cytometry analysis (Rvb= 91.6%). The class given is functional, U-87MG ATCC.
Test [22] concerns U-87 MG. The test is described as follows: Induction of apoptosis in human U-87 MG cells assessed as early apoptotic cells at 44 uM measured after 48 hrs by annexin V-FITC/PI staining based flow cytometry analysis (Rvb= 6.21%). The class given is functional, U-87MG ATCC.
Test [23] deals with U-87 MG. Description: Induction of apoptosis in human U-87 MG cells assessed as late apoptotic cells at 44 uM measured after 48 hrs by annexin V-FITC/PI staining based flow cytometry analysis (Rvb= 2.11%). The class given is functional, U-87MG ATCC.
Test [24] concerns U-87 MG. The test is described as follows: Induction of apoptosis in human U-87 MG cells assessed as dead cells at 44 uM measured after 48 hrs by Annexin V-FITC/PI staining based flow cytometry analysis (Rvb= 0.098%). The test is classed as functional, U-87MG ATCC.

As for `Nc1nc2cc3c(cc2cc1C(=O)NCc1cccnc1)OCO3`, the IC50 was 109 µM in [1], over 200 µM in test [2], over 200 µM in test [3] and 163 µM in test [4]. Also, the outcome in [5], in test [6], in test [7] and in test [8] was inactive.

`Nc1nc2cc3c(cc2cc1C(=O)NCc1ccccc1)OCO3`: the IC50 in test [1] was 75.6 µM; in test [2], over 200 µM; in [3], over 200 µM; in test [4] it was over 200 µM.

Take `Nc1nc2cc3c(cc2cc1C(=O)NCCc1c[nH]c2ccccc12)OCCO3`: in test [1], the IC50 worked out at 44.4 µM.

With `Cn1nnc2c(C(N)=O)ncn2c1=O` [TEMOZOLOMIDE], in test [1], the IC50 was over 200 µM.

For the compound `Nc1nc2cc3c(cc2cc1C(=O)NCC1CC1)OCO3`, the IC50 was 77.2 µM in test [1], over 200 µM in test [2], over 200 µM in [3] and over 200 µM in test [4].

Regarding `Nc1nc2ncccc2cc1C(=O)NCc1cccnc1`, the IC50 in test [1] was 303 µM; in [2], over 200 µM; in test [3] it was over 200 µM; in test [4], over 200 µM.

As to `Nc1nc2cc(Cl)ccc2cc1C(=O)NCc1cccnc1`, the IC50 in test [1] was 125 µM; in [2] it was over 200 µM; in test [3], over 200 µM; in test [4], over 200 µM.

In the case of `c1cc2cc3c(cc2nc1C1CC1)OCO3`, the IC50 in [1] was over 200 µM. Besides, in test [9], the outcome was inactive.

For the compound `Nc1nc2cc3c(cc2cc1C(=O)NCCN1C(=O)c2cccc4cccc(c24)C1=O)OCO3`, the IC50 in test [1] is over 200 µM; in [2], 73.4 µM.

Consider `COc1cc2nc(N)c(C(=O)NCCc3c[nH]c4ccccc34)cc2c(Cl)c1OC`, for which the 50% inhibitory concentration (IC50) is 60.8 µM in test [1] and 75.1 µM in test [3].

As for `C#CCNC(=O)c1cc2cc3c(cc2nc1N)OCO3`, the IC50 is over 200 µM in [1], 92 µM in test [2], over 200 µM in test [3] and over 200 µM in [4].

On to `COc1cc2cc(C(=O)NCCc3c[nH]c4ccccc34)c(N)nc2cc1OC`, for which the IC50 came out at 43.6 µM in [1]; 72.3 µM in test [3]; 121 µM in test [10]; 23.7 µM in test [11]; 29.2 µM in test [12]; 118 µM in [13]. Also, the IC50 in test [14] was 222 µM; in test [15] it was 135 µM. Moreover, the result in test [9], in test [16], in [17], in test [18] and in test [19] was Active. The Activity in [20] worked out at 23.14%; in test [21], 5.65%; in test [22] it was 50.9%; in test [23], 43%; in test [24] it was 0.45%.

For the compound `Nc1nc2cc3c(cc2cc1C(=O)NCCc1c[nH]c2ccccc12)OCO3`, the IC50 in test [1] is 45.5 µM; in test [2] it was over 200 µM; in test [3] it was 76.9 µM; in [4], over 200 µM.
